Source: paper PMC6017655, “In Silico and in Vitro-Guided Identification of Inhibitors of Alkylquinolone-Dependent Quorum Sensing in Pseudomonas aeruginosa” (Molecules : A Journal of Synthetic Chemistry and Natural …, 2018)
Entries after “also recorded” stand apart in the source; their conditions may differ. Read-outs that look alike come from different tables or passages of the source.

Columns and labels:
AQ production in PAO1-L = assay: Alkylquinolone (HHQ, PQS, HQNO) production by LC-MS/MS, PAO1-L; assay type: cell-based, Pseudomonas aeruginosa; details: 3x IC50, 16 h, culture supernatant
Description: HQNO, can protect Staphylococcus aureus from vancomycin [31] and contributes to the environmental competitiveness of P. aeruginosa, through its activity as a potent inhibitor of the cytochrome bc1 complex. […] LC-MS/MS was used to quantify the major AQs HHQ, PQS and HQNO after incubation of the P. aeruginosa strains with the hit compounds, for 16 h. The assay was performed using both PAO1-L and PA14 strains which were treated with PqsR antagonists at concentrations three-fold higher than their IC50 values. The results obtained depended on the inhibitor and strain tested (Figure 5).
For each test sample, 100 µL of sterile filtered supernatant (the same preparation as for pyocyanin) was spiked with 10 µL of an internal standard solution (10 µM d4-PQS in MeOH), and diluted with water, to a total volume of 500 µL. Samples were then extracted three times with an 0.5 mL aliquot of ethyl acetate, vortex mixing the aqueous/organic mix for 2 min, then removing the organic phase once the layers had successfully partitioned. For each sample, the combined organic extracts were dried under vacuum and re-dissolved in 100 µL MeOH prior to analysis. For the LC-MS/MS analysis of supernatant extracts, the chromatography was achieved using a Shimadzu series 10AD VP LC system (Columbia, MD, USA). The LC column, maintained at 40 °C, was a Phenomenex Gemini C18 (3.0 µm, 100 × 3.0 mm) (Macclesfield, Cheshire, UK) with an appropriate guard column. Mobile phase A was 0.1% (v/v) formic acid in water containing 2 mM 2-picolinic acid, and mobile phase B 0.1% (v/v) formic acid in methanol. The flow rate throughout the chromatographic separation was 450 µL/min. After an injection of a 2 µL/sample, a binary gradient, beginning initially at 30% B, increased linearly to 99% B over 5 min. The composition remained at 99% B for 3 min, decreased to 30% B over 1 min, and stayed at this composition for 4 min, to allow for column equilibration. […] Where chromatographic peaks for HHQ, HQNO and PQS were detected, a peak area was determined, and analyte peak area/internal standard peak area calculated.

Plasma stability, human = assay type: in vitro ADME; details: 37 °C; for half-life at 1 µM: human, plasma, up to 2 h, read-out: Plasma Stability Human t 1/2
Description: (§1) Dilutions of a 10 mM test compound DMSO stock solution were prepared so that the final DMSO concentration was 1% v/v and the final test compound concentration tested was 1 µM. Following the addition of the test compound to plasma, the samples were pre-incubated for 10 min prior to the start of the incubation by the addition of the test compound. The test compound was incubated (n = 2; 1 µM final concentration) at 37 °C with plasma for up to 2 h. Aliquots were sampled at several time points and mixed with acetonitrile (containing internal standard) to terminate the reaction and precipitate the proteins. All the samples were mixed, centrifuged and the supernatants analysed by UPLC-MSMS. Parent disappearance and half-life (t 1/2) values were determined from the slope of the parent depletion curve. Control compounds (imidapril, enalapril, tenofovir and/or propantheline), were respectively included.

[1] = test system: PqsR (pqsA promoter, PAO1-L mCTX::PpqsA-lux); assay: Whole cell biosensor reporter assay, PAO1-L mCTX::PpqsA-lux; assay type: cell-based, Pseudomonas aeruginosa; details: for IC50: Mean ± SD, n = 3; for activity at 10 µM: PAO1, read-out: PAO1-L Remaining Activity %; for PqsR inhibitory activity (in words), PAO1-L: screen at 10 µM / dose-response
Description: (§2) To determine the ability of the quinolines to inhibit PqsR functionality, the P. aeruginosa biosensor strains, PAO1-L and PA14, incorporating a chromosomal mCTX::PpqsA-lux transcriptional fusion, were used. These report on the activation of the pqsA promoter, regulated by PqsR [25]. PAO1-L and PA14 were chosen because they are genetically amenable and belong to the two major P. aeruginosa genomic groups. The quinolone compounds were incubated with the corresponding strain, and luminescence and optical density readings were recorded to monitor the effect of the quinolines on PqsR activity and bacterial growth, respectively. The compounds were screened at 10 µM concentration, and the activity was compared to a control of DMSO (0.1%) (Figure 3a). To be considered a hit, a threshold of at least 50% inhibition of the test compound, relative to the negative control had to be reached, without affecting bacterial growth. […] Concentration-response experiments were then carried out to determine the IC50 values (Figure 3b,c), which are summarised in Table 1.
Strains PA14 mCTX::PpqsA-lux and PAO1-L mCTX::PpqsA-lux were constructed using plasmid mini-CTX::PpqsA-lux, as previously described, and the assay was performed according to a published protocol. For screening, the compounds were tested at a concentration of 10 µM, which was prepared from a 10 mM stock, in DMSO.

Plasma stability, rat = assay type: in vitro ADME; details: 37 °C, up to 2 h, read-out: Plasma Stability Rat t1/2
Description: as §1

PAO1-L = assay: Bacterial growth (optical density) in reporter assay, PAO1-L; assay type: cell-based, Pseudomonas aeruginosa; details: compound vs DMSO control
Description: as §2
Figure 3 Whole bacterial cell-based P. aeruginosa compound screen for both PqsR and growth inhibition (a) Activity against PA14 (green) and PAO1-L (purple) PpqsA-lux reporter strains at 10 µM test compound; (b) and (c) Dose-response curves for active compounds against PA14 (b) and PAO1-L (c); (d) and (e) growth curves for PA14 (d) and PAO1-L (e) in the presence of compound or DMSO control.

[2] = test system: pyocyanin production by PA14; assay: Pyocyanin production assay, PA14; assay type: cell-based, Pseudomonas aeruginosa; details: 3x IC50, 16 h
Description: Pyocyanin is a blue redox-active toxin, produced by P. aeruginosa and strongly-controlled by PqsR via the regulation of pqsE expression. Pyocyanin is essential for the pathogenicity of P. aeruginosa in lung infections. The effect of the PqsR inhibitors on pyocyanin production by PA14 and PAO1-L strains, when grown in the presence or absence of the inhibitors, was investigated (Figure 4).
The experiment was performed following a published protocol with minor modifications. P. aeruginosa strains were cultured into 5 mL fresh medium overnight. […] Cells were centrifuged at 10,000 RCF for 10 min (Allegra 64R centrifuge, Beckman Coulter, High Wycombe, UK) and the supernatant was transferred to 15 mL falcon tubes with a HSW 10 mL Soft-Ject Syringe and a […] Sartorius syringe-driven filter (Fisher Brand, Loughborough, UK). Pyocyanin pigment was extracted into chloroform by mixing 7.5 mL of supernatant with 4.5 mL of chloroform. Pyocyanin was further extracted into 1.5 mL of 0.2 M HCL, which gave a pink/red solution, and the absorbance was measured at 520 nm.

[3] = Pseudomonas aeruginosa, PAO1, read-out: IC50 PAO1-L, PpqsA-lux reporter

Compound	Inhibition of AQ production (in words), PAO1-L (AQ production in PAO1-L)	Plasma stability (in words), human plasma (Plasma stability, human; 1 µM)	half-life at 1 µM (Plasma stability, human) [min]	IC50 [1, 3] [nM]	activity at 10 µM ([1]; Pseudomonas aeruginosa) [%]	PqsR inhibitory activity (in words), PAO1-L [1]	half-life at 1 µM (Plasma stability, rat) [min]	Effect on bacterial growth, PAO1-L (PAO1-L)	Effect on pyocyanin production (in words), PA14 [2]	IC50 ([1]; read-out: IC50 PAO1-L, PpqsA-lux reporter) [nM]	Reduction of pyocyanin production, PA14 ([2]; strain not singled out in the sentence)
O=CN1N=C(c2ccccc2)CC1c1cccc(Nc2ccnc3cc(Cl)ccc23)c1 (stereo not shown) [Ia]	strongly-inhibited AQ production	greatest plasma stability	132	12400 ± 1790	25.8 ± 1.17	strong PqsR inhibitory activity; also recorded: modest activity	> 240	without interfering with bacterial growth	strongest effect	–	–
CC(=O)N1N=C(c2ccccc2)CC1c1cccc(Nc2ccnc3cc(Cl)ccc23)c1 (stereo not shown) [IIa]	moderate effect	–	73.8	1500	31.6 ± 6.6	strong PqsR inhibitory activity	> 240	without interfering with bacterial growth	weakest effect	1600 ± 290	over 25%
